Test [1] relates to shRNA CTRL Jurkat clones (E6.1 Jurkat T cell line). As to the kind of experiment: Apoptosis assay (annexin V-FITC and PI staining, flow cytometry) in shRNA CTRL Jurkat clones. In kind it is cell-based. The note with it: for Apoptosis response % shRNACTRL: shRNA CTRL Jurkat clones. On the procedure: (§1) The apoptosis was assessed by flow cytometry. Columns with standard deviation represent the mean percentage of 3 experiments.
(§2) Histograms of gated cells represent early and late apoptotic populations. As shown in the left panel, 42% of treated shRNA CTRL cells are in apoptosis whereas 18% of apoptotic shRNA BACH2 cells are observed after BACH2 repression
(§3) The inventors firstly added FAS ligand (FASLG/TNFSF6) or PMA (phorbol myristic acetate) (see Table 2) to control or to cells transfected with BACH2 sh RNA. They further treated control and transfected cells (with BACH2 sh RNA) by a 18-hours stimulation with anti-CD2, anti-CD28 or anti-CD3 antibodies.
For orientation: Flow cytometry measures light scatter and fluorescence of single cells or particles in a stream.

In test [2] the test system is shRNA BACH2 Jurkat clones (E6.1 Jurkat T cell line). The experiment in a line: Apoptosis assay (annexin V-FITC and PI staining, flow cytometry) in shRNA BACH2 Jurkat clones. It counts as cell-based. The note with it: for Apoptosis response % shRNABACH2: shRNA BACH2 Jurkat clones; for Apoptosis response Difference %: shRNACTRL minus shRNABACH2 Jurkat clones. The protocol: as §1, §2, §3

Test [3] concerns Fas L mRNA in CD4+ cells from a patient having a hemizigous deletion of BACH2 gene. The experiment in a line: Fas L mRNA abundance in CD4+ cells ex vivo in function of etoposide treatment. The note with it: CD4+ cells having lost one copy of BACH2, compared with control CD4+ cells from a healthy donor. In kind it is cell-based, human. From the text:
This observation is further confirmed by the ex-vivo analysis shown at FIG. 8, wherein, clearly, CD4+ T cells having hemizigous BACH2 fail to express FasL mRNA.

For the molecule `CCCCCCCCCCCCCC(=O)O[C@@H]1[C@@H](C)[C@@]2(O)[C@@H](C=C(CO)C[C@]3(O)C(=O)C(C)=C[C@@H]23)[C@@H]2C(C)(C)[C@]12OC(C)=O` [PMA, phorbol myristic acetate], the “Apoptosis response % shRNACTRL” value in test [1] was 16.17 (+/−2.26) %. Also, in test [2], the “Apoptosis response % shRNABACH2” value is 16.7 (+/−6.12) % and the “Apoptosis response Difference %” value was −0.5%.
As to `COc1cc([C@@H]2c3cc4c(cc3[C@@H](O[C@@H]3O[C@@H]5CO[C@@H](C)O[C@H]5[C@H](O)[C@H]3O)[C@H]3COC(=O)[C@H]23)OCO4)cc(OC)c1O` [Etoposide], the “cells in apoptosis (early and late apoptotic populations)” value in test [1] (clone shRNA CTRL-A, 1 μg/ml etoposide, 18 hrs) was found to be 42%. In addition, the “Apoptosis response % shRNACTRL” value in test [1] was 41.2 (+/−4.94) %. Besides, in test [2] (clone shRNA BACH2-C versus shRNA control-A, 1 μg/ml of etoposide), the “reduction in the number of apoptotic cells (AnnexinV+) in the BACH2-repressed clone” value was “two-fold reduction”. For the same molecule, in test [2] (clone shRNA BACH2-C, 1 μg/ml etoposide, 18 hrs), the “apoptotic cells (early and late apoptotic populations)” value came out at 18%. Moreover, in test [2], the “Apoptosis response % shRNABACH2” value is on record as 18.27 (+/−2.71) % and the “Apoptosis response Difference %” value is given as 23%. Also, in test [3], the “FasL mRNA production upon etoposide exposure” value was “fails to produce FasL”.

B1: Fas-L: FAS ligand (FASLG/TNFSF6) added to Jurkat clones to trigger apoptosis (protein, UniProt P48023 130-281, looked up)
Tumor necrosis factor ligand …: QIGHPSPPPEKKELRKVAHLTGKSNSRSMPLEWEDTYGIVLLSGVKYKKGGLVINETGLYFVYSKVYFRGQSCNNLPLSHKVYMRNSKYPQDLVMMEGKMMSYCTTGQMWARSSYLGAVFNLTSADHLYVNVSELSLVNFEESQTFFGLYKL
B1: the “Apoptosis response % shRNACTRL” value in test [1] is on record as 33.18 (+/−2.32) %. Further, in test [2], the “Apoptosis response % shRNABACH2” value was 34.51 (+/−3.75) % and the “Apoptosis response Difference %” value is −1.3%.

Values taken from patent US9828644B2, “BACH2 repression in cells” (UNIVERSITE LIBRE DE BRUXELLES, priority 2010, dated 2017).
